Laboratory results published in PubChem BioAssay (NCI).
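In this assay, cells in 96-well plates receive the compound at five concentrations for 48 hours. Endpoints are linearly interpolated between the surrounding concentrations. Here, GI50 denotes the concentration required for 50% inhibition of growth. TGI: total growth inhibition.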

How the values were obtained:
Assay in all cases: NCI anticancer screen, dose series, 48 h
786-0 renal = tested on: 786-0 renal
A498 renal = tested on: A498 renal
A549 NSCLC = tested on: A549 NSCLC
ACHN renal = tested on: ACHN renal
BT-549 breast = tested on: BT-549 breast
CAKI-1 renal = tested on: CAKI-1 renal
CCRF-CEM leukemia = tested on: CCRF-CEM leukemia
COLO 205 colon = tested on: COLO 205 colon
DU-145 prostate = tested on: DU-145 prostate
EKVX NSCLC = tested on: EKVX NSCLC
HCC-2998 colon = tested on: HCC-2998 colon
HCT-116 colon = tested on: HCT-116 colon
HCT-15 colon = tested on: HCT-15 colon
HL-60(TB) leukemia = tested on: HL-60(TB) leukemia
HOP-62 NSCLC = tested on: HOP-62 NSCLC
HOP-92 NSCLC = tested on: HOP-92 NSCLC
HS 578T breast = tested on: HS 578T breast
HT29 colon = tested on: HT29 colon
IGROV1 ovarian = tested on: IGROV1 ovarian
K-562 leukemia = tested on: K-562 leukemia
KM12 colon = tested on: KM12 colon
LOX IMVI melanoma = tested on: LOX IMVI melanoma
M14 melanoma = tested on: M14 melanoma
MALME-3M melanoma = tested on: MALME-3M melanoma
MCF7 breast = tested on: MCF7 breast
MDA-MB-231 breast = tested on: MDA-MB-231 breast
MDA-MB-435 = tested on: MDA-MB-435
MOLT-4 leukemia = tested on: MOLT-4 leukemia
NCI-H226 lung = tested on: NCI-H226 lung
NCI-H23 lung = tested on: NCI-H23 lung
NCI-H460 lung = tested on: NCI-H460 lung
NCI-H522 lung = tested on: NCI-H522 lung
NCI/ADR-RES ovarian = tested on: NCI/ADR-RES ovarian
OVCAR-3 ovarian = tested on: OVCAR-3 ovarian
OVCAR-4 ovarian = tested on: OVCAR-4 ovarian
OVCAR-5 ovarian = tested on: OVCAR-5 ovarian
OVCAR-8 ovarian = tested on: OVCAR-8 ovarian
PC-3 prostate = tested on: PC-3 prostate
RPMI-8226 leukemia = tested on: RPMI-8226 leukemia
RXF 393 renal = tested on: RXF 393 renal
SF-268 CNS = tested on: SF-268 CNS
SF-295 CNS = tested on: SF-295 CNS
SF-539 CNS = tested on: SF-539 CNS
SK-MEL-2 melanoma = tested on: SK-MEL-2 melanoma
SK-MEL-28 melanoma = tested on: SK-MEL-28 melanoma
SK-MEL-5 melanoma = tested on: SK-MEL-5 melanoma
SK-OV-3 ovarian = tested on: SK-OV-3 ovarian
SN12C renal = tested on: SN12C renal
SNB-19 CNS = tested on: SNB-19 CNS
SNB-75 CNS = tested on: SNB-75 CNS
SR leukemia = tested on: SR leukemia
SW-620 colon = tested on: SW-620 colon
T-47D breast = tested on: T-47D breast
TK-10 renal = tested on: TK-10 renal
U251 CNS = tested on: U251 CNS
UACC-257 melanoma = tested on: UACC-257 melanoma
UACC-62 melanoma = tested on: UACC-62 melanoma
UO-31 renal = tested on: UO-31 renal

Structure (SMILES): CCN(c1cc(C#CCN2CCOCC2)cc(C(=O)NCc2c(C)cc(C)[nH]c2=O)c1C)C1CCC(N(C)CCOC)CC1 (stereo unspecified)
- GI50 (786-0 renal): > 100 µM
- TGI (786-0 renal): > 100 µM
- GI50 (A498 renal): > 100 µM
- TGI (A498 renal): > 100 µM
- GI50 (A549 NSCLC): > 100 µM
- TGI (A549 NSCLC): > 100 µM
- GI50 (ACHN renal): > 100 µM
- TGI (ACHN renal): > 100 µM
- GI50 (BT-549 breast): > 100 µM
- TGI (BT-549 breast): > 100 µM
- GI50 (CAKI-1 renal): > 100 µM
- TGI (CAKI-1 renal): > 100 µM
- GI50 (CCRF-CEM leukemia): > 100 µM
- TGI (CCRF-CEM leukemia): > 100 µM
- GI50 (COLO 205 colon): > 100 µM
- TGI (COLO 205 colon): > 100 µM
- GI50 (DU-145 prostate): > 100 µM
- TGI (DU-145 prostate): > 100 µM
- GI50 (EKVX NSCLC): > 100 µM
- TGI (EKVX NSCLC): > 100 µM
- GI50 (HCC-2998 colon): > 100 µM
- TGI (HCC-2998 colon): > 100 µM
- GI50 (HCT-116 colon): > 100 µM
- TGI (HCT-116 colon): > 100 µM
- GI50 (HCT-15 colon): > 100 µM
- TGI (HCT-15 colon): > 100 µM
- GI50 (HL-60(TB) leukemia): > 100 µM
- TGI (HL-60(TB) leukemia): > 100 µM
- GI50 (HOP-62 NSCLC): > 100 µM
- TGI (HOP-62 NSCLC): > 100 µM
- GI50 (HOP-92 NSCLC): > 100 µM
- TGI (HOP-92 NSCLC): > 100 µM
- GI50 (HS 578T breast): > 100 µM
- TGI (HS 578T breast): > 100 µM
- GI50 (HT29 colon): > 100 µM
- TGI (HT29 colon): > 100 µM
- GI50 (IGROV1 ovarian): > 100 µM
- TGI (IGROV1 ovarian): > 100 µM
- GI50 (K-562 leukemia): > 100 µM
- TGI (K-562 leukemia): > 100 µM
- GI50 (KM12 colon): > 100 µM
- TGI (KM12 colon): > 100 µM
- GI50 (LOX IMVI melanoma): > 100 µM
- TGI (LOX IMVI melanoma): > 100 µM
- GI50 (M14 melanoma): > 100 µM
- TGI (M14 melanoma): > 100 µM
- GI50 (MALME-3M melanoma): > 100 µM
- TGI (MALME-3M melanoma): > 100 µM
- GI50 (MCF7 breast): > 100 µM
- TGI (MCF7 breast): > 100 µM
- GI50 (MDA-MB-231 breast): > 100 µM
- TGI (MDA-MB-231 breast): > 100 µM
- GI50 (MDA-MB-435): > 100 µM
- TGI (MDA-MB-435): > 100 µM
- GI50 (MOLT-4 leukemia): > 100 µM
- TGI (MOLT-4 leukemia): > 100 µM
- GI50 (NCI-H226 lung): > 100 µM
- TGI (NCI-H226 lung): > 100 µM
- GI50 (NCI-H23 lung): > 100 µM
- TGI (NCI-H23 lung): > 100 µM
- GI50 (NCI-H460 lung): > 100 µM
- TGI (NCI-H460 lung): > 100 µM
- GI50 (NCI-H522 lung): > 100 µM
- TGI (NCI-H522 lung): > 100 µM
- GI50 (NCI/ADR-RES ovarian): > 100 µM
- TGI (NCI/ADR-RES ovarian): > 100 µM
- GI50 (OVCAR-3 ovarian): > 100 µM
- TGI (OVCAR-3 ovarian): > 100 µM
- GI50 (OVCAR-4 ovarian): > 100 µM
- TGI (OVCAR-4 ovarian): > 100 µM
- GI50 (OVCAR-5 ovarian): > 100 µM
- TGI (OVCAR-5 ovarian): > 100 µM
- GI50 (OVCAR-8 ovarian): > 100 µM
- TGI (OVCAR-8 ovarian): > 100 µM
- GI50 (PC-3 prostate): > 100 µM
- TGI (PC-3 prostate): > 100 µM
- GI50 (RPMI-8226 leukemia): 7.13 µM
- TGI (RPMI-8226 leukemia): > 100 µM
- GI50 (RXF 393 renal): > 100 µM
- TGI (RXF 393 renal): > 100 µM
- GI50 (SF-268 CNS): > 100 µM
- TGI (SF-268 CNS): > 100 µM
- GI50 (SF-295 CNS): > 100 µM
- TGI (SF-295 CNS): > 100 µM
- GI50 (SF-539 CNS): > 100 µM
- TGI (SF-539 CNS): > 100 µM
- GI50 (SK-MEL-2 melanoma): > 100 µM
- TGI (SK-MEL-2 melanoma): > 100 µM
- GI50 (SK-MEL-28 melanoma): > 100 µM
- TGI (SK-MEL-28 melanoma): > 100 µM
- GI50 (SK-MEL-5 melanoma): > 100 µM
- TGI (SK-MEL-5 melanoma): > 100 µM
- GI50 (SK-OV-3 ovarian): > 100 µM
- TGI (SK-OV-3 ovarian): > 100 µM
- GI50 (SN12C renal): > 100 µM
- TGI (SN12C renal): > 100 µM
- GI50 (SNB-19 CNS): > 100 µM
- TGI (SNB-19 CNS): > 100 µM
- GI50 (SNB-75 CNS): 53.1 µM
- TGI (SNB-75 CNS): > 100 µM
- GI50 (SR leukemia): 27 µM
- TGI (SR leukemia): > 100 µM
- GI50 (SW-620 colon): > 100 µM
- TGI (SW-620 colon): > 100 µM
- GI50 (T-47D breast): > 100 µM
- TGI (T-47D breast): > 100 µM
- GI50 (TK-10 renal): > 100 µM
- TGI (TK-10 renal): > 100 µM
- GI50 (U251 CNS): > 100 µM
- TGI (U251 CNS): > 100 µM
- GI50 (UACC-257 melanoma): > 100 µM
- TGI (UACC-257 melanoma): > 100 µM
- GI50 (UACC-62 melanoma): > 100 µM
- TGI (UACC-62 melanoma): > 100 µM
- GI50 (UO-31 renal): > 100 µM
- TGI (UO-31 renal): > 100 µM
